Test results reported in patent publication US12446495B2, “Injection systems, injection tools and methods for same” (Invaio Sciences International GmbH, priority 2018, dated 2025).

Experiment: Distribution of test substance within plants after trunk injection
Assay type: in vivo
Settings: solution comprising 2% Brilliant Blue E 133 injected; trees felled and cut in pieces; over 24 hours
Source text: The trunk injection devices have been tested regarding the use with different types of trunks, the speed of absorption, distribution of product within the plant, and the continuing usage of an injection device within a trunk. The injection devices have been tested with trunks with a diameter between 2 cm and 30 cm. The tests have been conducted with box, vine, hazelnut, walnut, maple, beach and oak. Further, trees such as date palm, citrus tree, and banana tree would be suitable as well.′ Speed of absorption is influenced by factors such as weather, season, time of day and injection pressure. Within tests conducted under ideal conditions, an injection pressure of 2.5 bars, and 10 ml of test substance, absorption times below 2 minutes have been achieved.
Distribution within plants has been tested injecting a solution comprising 2% Brilliant Blue E 133 (CAS reg. No. 3844-45-9.) as a test substance. Trees have afterwards been felled and cut in pieces to analyze the distribution of the test substance over time within the plant. The test substance did typically distribute over 5 meters within the stem over 24 hours.

distribution of the test substance within the stem: ~5 meters
Structure (SMILES): CCN(Cc1cccc(S(=O)(=O)[O-])c1)c1ccc(C(=C2C=CC(=[N+](CC)Cc3cccc(S(=O)(=O)[O-])c3)C=C2)c2ccccc2S(=O)(=O)[O-])cc1.[Na+].[Na+] [Brilliant Blue E 133]
